From PubChem BioAssay AID272 (DTP/NCI, 2004) come the findings set out here.

This experiment has as its system Lewis lung carcinoma i.m., BDF1 mice, T/C %. Description: NCI In Vivo Anticancer Drug Screen. Data for tumor model Lewis Lung Carcinoma (intramuscular) in B6D2F1 (BDF1) mice. Here is the method:
The antitumor activity of compounds was measured in mice bearing transplantable tumors. Survival or tumor size were measured and the results are expressed as the measurement made in the treated group (T) divided by the measurement made in the vehicle treated control group (C). The tumor model used in this assay is Lewis Lung Carcinoma (intramuscular) in B6D2F1 (BDF1) mice

The mark [1] stands for this setting: endpoint: mean tumor weight (est.), dose: 5.0 mg/kg/injection, schedule: Q01DX011 (ip), vehicle: saline, higher = larger tumour.
[2] abbreviates: endpoint: mean tumor weight (est.), dose: 12.5 mg/kg/injection, schedule: Q01DX011 (ip), vehicle: saline with Tween-80, higher = larger tumour.
Setting [3] is: endpoint: mean tumor weight (est.), dose: 25.0 mg/kg/injection, schedule: Q01DX011 (ip), vehicle: saline with Tween-80, higher = larger tumour.

Each structure is given as a SMILES string. Values joined by “and” are separate entries in the source; they are usually repeats but may differ in a detail not shown here. Equal entries are not always repeated. Records with an inconclusive call do not appear.

`Clc1nc2ccccc2nc1CI`: the T/C under setting [1] is 70 % of control and the T/C (endpoint: median survival time, dose: 5.0 mg/kg/injection, schedule: Q01DX011 (ip), vehicle: saline, higher = longer survival) is 100 % of control.
Take `Nc1ncc(N)c(N)n1`: the T/C is 80 % of control (endpoint: mean tumor weight (est.), dose: 40.0 mg/kg/injection, schedule: Q01DX011 (ip), vehicle: saline, higher = larger tumour); 88 % of control (endpoint: mean tumor weight (est.), dose: 80.0 mg/kg/injection, schedule: Q01DX011 (ip), vehicle: saline, higher = larger tumour); 119 % of control (endpoint: mean tumor weight (est.), dose: 160.0 mg/kg/injection, schedule: Q01DX011 (ip), vehicle: saline, higher = larger tumour); 103 % of control (endpoint: median survival time, dose: 40.0 mg/kg/injection, schedule: Q01DX011 (ip), vehicle: saline, higher = longer survival); 98 % of control (endpoint: median survival time, dose: 80.0 mg/kg/injection, schedule: Q01DX011 (ip), vehicle: saline, higher = longer survival); 94 % of control (endpoint: median survival time, dose: 160.0 mg/kg/injection, schedule: Q01DX011 (ip), vehicle: saline, higher = longer survival).
`COc1cc([C@@H]2c3cc4c(cc3[C@@H](OC3OC5COC(C)OC5C(O)C3O)[C@H]3COC(=O)[C@H]23)OCO4)cc(OC)c1O` (stereo partly drawn): the T/C reads like this: (endpoint: mean tumor weight (est.), dose: 0.25 mg/kg/injection, schedule: Q01DX011 (ip), vehicle: saline, higher = larger tumour) 72 % of control; (endpoint: mean tumor weight (est.), dose: 0.5 mg/kg/injection, schedule: Q01DX011 (ip), vehicle: saline, higher = larger tumour) 67 % of control; (endpoint: mean tumor weight (est.), dose: 1.0 mg/kg/injection, schedule: Q01DX011 (ip), vehicle: saline, higher = larger tumour) 79 % of control; (endpoint: mean tumor weight (est.), dose: 2.0 mg/kg/injection, schedule: Q01DX011 (ip), vehicle: saline, higher = larger tumour) 74 % of control; (endpoint: mean tumor weight (est.), dose: 4.0 mg/kg/injection, schedule: Q01DX011 (ip), vehicle: saline, higher = larger tumour) 43 % of control; under setting [1], 105 % of control. Further, the T/C is 96 % of control (endpoint: median survival time, dose: 0.25 mg/kg/injection, schedule: Q01DX011 (ip), vehicle: saline, higher = longer survival); 98 % of control (endpoint: median survival time, dose: 0.5 mg/kg/injection, schedule: Q01DX011 (ip), vehicle: saline, higher = longer survival); 96 % of control (endpoint: median survival time, dose: 1.0 mg/kg/injection, schedule: Q01DX011 (ip), vehicle: saline, higher = longer survival); 107 % of control (endpoint: median survival time, dose: 2.0 mg/kg/injection, schedule: Q01DX011 (ip), vehicle: saline, higher = longer survival); 101 % of control (endpoint: median survival time, dose: 4.0 mg/kg/injection, schedule: Q01DX011 (ip), vehicle: saline, higher = longer survival).
Regarding `S=c1nc[nH]c2nc[nH]c12`, the T/C runs as follows: (endpoint: mean tumor weight, dose: 10.0 mg/kg/injection, schedule: Q01DX011 (ip), vehicle: other, higher = larger tumour) 77 % of control; (endpoint: mean tumor weight, dose: 20.0 mg/kg/injection, schedule: Q01DX011 (ip), vehicle: other, higher = larger tumour) 77 % of control; (endpoint: mean tumor weight, dose: 40.0 mg/kg/injection, schedule: Q01DX011 (ip), vehicle: other, higher = larger tumour) 89 % of control; (endpoint: mean tumor weight, dose: 65.0 mg/kg/injection, schedule: Q01DX011 (ip), vehicle: other, higher = larger tumour) 58 % of control; (endpoint: median survival time, dose: 4.0 mg/kg/injection, schedule: Q01DX011 (ip), vehicle: other, higher = longer survival) 91 % of control and 108 % of control; (endpoint: median survival time, dose: 8.0 mg/kg/injection, schedule: Q01DX011 (ip), vehicle: other, higher = longer survival) 91 % of control and 111 % of control. The T/C (endpoint: median survival time, dose: 10.0 mg/kg/injection, schedule: Q01DX011 (ip), vehicle: other, higher = longer survival) is 110 % of control; the T/C (endpoint: median survival time, dose: 16.0 mg/kg/injection, schedule: Q01DX011 (ip), vehicle: other, higher = longer survival) is 93 % of control; the T/C (endpoint: median survival time, dose: 20.0 mg/kg/injection, schedule: Q01DX011 (ip), vehicle: other, higher = longer survival) was 112 % of control; the T/C (endpoint: median survival time, dose: 32.0 mg/kg/injection, schedule: Q01DX011 (ip), vehicle: other, higher = longer survival) was 98 % of control.
For `CNC(=S)N/N=C/CCC/C=N/NC(=S)NC`, the T/C (endpoint: mean tumor weight (est.), dose: 18.75 mg/kg/injection, schedule: Q01DX011 (ip), vehicle: saline with Tween-80, higher = larger tumour) was 112 % of control; the T/C (endpoint: mean tumor weight (est.), dose: 37.5 mg/kg/injection, schedule: Q01DX011 (ip), vehicle: saline with Tween-80, higher = larger tumour) is 91 % of control; the T/C (endpoint: mean tumor weight (est.), dose: 75.0 mg/kg/injection, schedule: Q01DX011 (ip), vehicle: saline with Tween-80, higher = larger tumour) is 53 % of control; the T/C (endpoint: median survival time, dose: 18.75 mg/kg/injection, schedule: Q01DX011 (ip), vehicle: saline with Tween-80, higher = longer survival) was 90 % of control; the T/C (endpoint: median survival time, dose: 37.5 mg/kg/injection, schedule: Q01DX011 (ip), vehicle: saline with Tween-80, higher = longer survival) was 94 % of control; the T/C (endpoint: median survival time, dose: 75.0 mg/kg/injection, schedule: Q01DX011 (ip), vehicle: saline with Tween-80, higher = longer survival) is 102 % of control.
As for `CSC(=S)N/N=C/c1ccccn1`, the T/C was 67 % of control under setting [2]; 92 % of control under setting [3]; 50 % of control (endpoint: mean tumor weight (est.), dose: 50.0 mg/kg/injection, schedule: Q01DX011 (ip), vehicle: saline with Tween-80, higher = larger tumour).
Consider `CCCCOc1ccc(NC(N)=Nc2ccc(Cl)cc2)cc1`, for which the T/C is 118 % of control (endpoint: mean tumor weight (est.), dose: 3.12 mg/kg/injection, schedule: Q01DX011 (ip), vehicle: saline with Tween-80, higher = larger tumour); 101 % of control (endpoint: mean tumor weight (est.), dose: 6.25 mg/kg/injection, schedule: Q01DX011 (ip), vehicle: saline with Tween-80, higher = larger tumour); 67 % of control under setting [2]; 58 % of control under setting [3]; 97 % of control (endpoint: median survival time, dose: 3.12 mg/kg/injection, schedule: Q01DX011 (ip), vehicle: saline with Tween-80, higher = longer survival); 123 % of control (endpoint: median survival time, dose: 6.25 mg/kg/injection, schedule: Q01DX011 (ip), vehicle: saline with Tween-80, higher = longer survival). The T/C reads like this: (endpoint: median survival time, dose: 12.5 mg/kg/injection, schedule: Q01DX011 (ip), vehicle: saline with Tween-80, higher = longer survival) 102 % of control; (endpoint: median survival time, dose: 25.0 mg/kg/injection, schedule: Q01DX011 (ip), vehicle: saline with Tween-80, higher = longer survival) 104 % of control.
`OCC1OC(n2cnc3c(Cl)ncnc32)C(O)C1O` (stereo not drawn): the T/C (endpoint: mean tumor weight (est.), dose: 25.0 mg/kg/injection, schedule: Q01DX011 (ip), vehicle: saline, higher = larger tumour) was 121 % of control; the T/C (endpoint: mean tumor weight (est.), dose: 50.0 mg/kg/injection, schedule: Q01DX011 (ip), vehicle: saline, higher = larger tumour) is 91 % of control; the T/C (endpoint: mean tumor weight (est.), dose: 100.0 mg/kg/injection, schedule: Q01DX011 (ip), vehicle: saline, higher = larger tumour) was 117 % of control; the T/C (endpoint: mean tumor weight (est.), dose: 400.0 mg/kg/injection, schedule: Q01DX011 (ip), vehicle: saline, higher = larger tumour) is 94 % of control; the T/C (endpoint: mean tumor weight, dose: 25.0 mg/kg/injection, schedule: Q01DX011 (ip), vehicle: Klucel (hydroxypropylcellulose) (HPC), higher = larger tumour) was 44 % of control; the T/C (endpoint: mean tumor weight, dose: 200.0 mg/kg/injection, schedule: Q01DX011 (ip), vehicle: Klucel (hydroxypropylcellulose) (HPC), higher = larger tumour) is 88 % of control. For the same compound, the T/C (endpoint: median survival time, dose: 25.0 mg/kg/injection, schedule: Q01DX011 (ip), vehicle: saline, higher = longer survival) is 100 % of control; the T/C (endpoint: median survival time, dose: 25.0 mg/kg/injection, schedule: Q01DX012 (ip), vehicle: Klucel (hydroxypropylcellulose) (HPC), higher = longer survival) is 95 % of control; the T/C (endpoint: median survival time, dose: 100.0 mg/kg/injection, schedule: Q01DX011 (ip), vehicle: saline, higher = longer survival) is 98 % of control; the T/C (endpoint: median survival time, dose: 200.0 mg/kg/injection, schedule: Q01DX012 (ip), vehicle: Klucel (hydroxypropylcellulose) (HPC), higher = longer survival) was 104 % of control; the T/C (endpoint: median survival time, dose: 400.0 mg/kg/injection, schedule: Q01DX011 (ip), vehicle: saline, higher = longer survival) is 92 % of control.
On to `CO[C@H](C(=O)[C@@H](O)[C@@H](C)O)[C@@H]1Cc2cc3cc(OC4CC(OC5CC(O)C(O)C(C)O5)C(O)C(C)O4)c(C)c(O)c3c(O)c2C(=O)[C@H]1OC1CC(OC2CC(OC3CC(C)(O)C(O)C(C)O3)C(O)C(C)O2)C(O)C(C)O1` (stereo partly drawn), for which the T/C was 89 % of control (endpoint: mean tumor weight, dose: 0.06 mg/kg/injection, schedule: Q01DX011 (ip), vehicle: water, higher = larger tumour); 107 % of control (endpoint: mean tumor weight, dose: 0.12 mg/kg/injection, schedule: Q01DX011 (ip), vehicle: water, higher = larger tumour); 111 % of control (endpoint: mean tumor weight, dose: 0.25 mg/kg/injection, schedule: Q01DX011 (ip), vehicle: water, higher = larger tumour); 66 % of control (endpoint: mean tumor weight, dose: 0.5 mg/kg/injection, schedule: Q01DX011 (ip), vehicle: water, higher = larger tumour); 108 % of control and 114 % of control (endpoint: median survival time, dose: 0.12 mg/kg/injection, schedule: Q01DX011 (ip), vehicle: water, higher = longer survival); 94 % of control and 104 % of control (endpoint: median survival time, dose: 0.13 mg/kg/injection, schedule: Q01DX009 (ip), vehicle: water, higher = longer survival). The T/C (endpoint: median survival time, dose: 0.25 mg/kg/injection, schedule: Q01DX009 (ip), vehicle: water, higher = longer survival) was 97 % of control and 101 % of control; the T/C (endpoint: median survival time, dose: 0.25 mg/kg/injection, schedule: Q01DX011 (ip), vehicle: water, higher = longer survival) was 92 % of control and 109 % of control; the T/C (endpoint: median survival time, dose: 0.5 mg/kg/injection, schedule: Q01DX009 (ip), vehicle: water, higher = longer survival) was 95 % of control and 108 % of control; the T/C (endpoint: median survival time, dose: 0.5 mg/kg/injection, schedule: Q01DX011 (ip), vehicle: water, higher = longer survival) was 103 % of control and 114 % of control; the T/C (endpoint: median survival time, dose: 1.0 mg/kg/injection, schedule: Q01DX009 (ip), vehicle: water, higher = longer survival) is 111 % of control.
